Like-named read-outs stand apart in the source and are kept apart here. Bounds are passed on as bounds.

One assay deals with T1, HIV integrase WT (Human immunodeficiency virus type 1 group M subtype B, UniProt P12497).
T1 construct: The integrase coding region was then subject to PCR and cloned into a bacterial expression vector; made in house
The assay can be described thus: Strand transfer assay (enzyme assay), wild type. The format is biochemical, HIV-1. From the text: (§1) HIV integrase was mutated within a shuttle vector (pGEMNLHE) containing the majority of the HIV-1 gag and pol sequence using site directed mutagenesis to generate integrase sequences that have been published as conferring resistance to published integrase inhibitors. These include, but are not limited to, mutations such as Q148K, Q148H/G140S and N155H/E92Q. The integrase coding region was then subject to PCR and cloned into a bacterial expression vector. The specific introduction of desired mutation(s) was confirmed by sequence analysis. Proteins were expressed, purified and used in strand transfer assays.
(§2) A strand transfer assay procedure similar to that published (Ovenden et al. Phytochemistry. 2004 December; 65(24):3255-9.) is used. Briefly, 400 ng of the enzyme, wild type or drug resistant mutant, is mixed with the compound to be tested and incubated with 30 nM substrate DNA. The substrate DNA is designed to mimic HIV DNA termini that has undergone 3′ end processing, and consists of the annealed U5 LTR sequence oligonucleotides tagged with Digoxigenin (DIG; 5′-[…]-DIG-3′) or biotin (5′-Bio-[…]-3′) so that each substrate has either a DIG or Bio tag on opposite strands. Reactions are carried out for 1 hr at 37° C. Products generated as a result of strand transfer activity are bound to streptavidin plates and detected using anti-DIG-alkaline phosphatase conjugate and p-nitro phenyl phosphate substrate.
(§3) Both the Phenosense assay and the Enzyme assay give substantially the same activity values for any particular compound and enzyme pair. The activity of one compound in one assay can therefore be directly compared to the activity of a second compound in the other assay.

For a further assay, the target named is T2, HIV integrase E92Q/N155H (Human immunodeficiency virus type 1 group M subtype B, UniProt P12497, E1239Q/N1302H).
T2 construct: The integrase coding region was then subject to PCR and cloned into a bacterial expression vector; made in house
The assay can be described thus: Strand transfer assay (enzyme assay), E92Q/N155H mutant. The format is biochemical, HIV-1.
From the text: as §1, §2, §3

For assay [1], the target named is T3, HIV integrase G140S/Q148H (Human immunodeficiency virus type 1 group M subtype B, UniProt P12497, G1287S/Q1295H).
T3 construct: The integrase coding region was then subject to PCR and cloned into a bacterial expression vector; made in house
Description: Strand transfer assay (enzyme assay), G140S/Q148H mutant. The format is biochemical, HIV-1.
From the text: as §1, §2, §3

Assay [2] has as its system HIV-1 reporter virus, integrase Q148H/G140S (QHGS). Description: Luciferase reporter virus infectivity assay, QHGS mutant. The format is cell-based. The settings on record: Human immunodeficiency virus 1, HEK-293T. From the text: (§4) Infectivity assays using reporter viruses derived from lentiviral vectors capable of a single round of infection were used to determine the activity (EC50) of compounds. The DNA used to generate viruses for infection was the full-length HIV-1 genome which had been envelope-deleted. In addition, a reporter gene (the firefly luciferase gene from Photinus pyralis) was cloned into the nef region of the HIV backbone for ease of assay readout. […]. Culture supernatants containing VSV-G pseudotyped virions were harvested 64 h post transfection, clarified by centrifugation to remove cell debris, and frozen at −70° C. until use.
(§5) HIV integrase was mutated within a shuttle vector (pGEM) containing the majority of the HIV-1 gag and pol sequence using site-directed mutagenesis to generate sequences that are known to confer resistance to published integrase inhibitors. These include but are not limited to mutations such as Q148H/G140S (in tables 2 and 3 # QHGS), N155H/E92Q (in table 2 # NHEQ), F121Y/T124K (in table 2 FYTK), Y143R (in table 2 # Y143R) and the triple mutant Q148K/G140A/E138A. (in table 2 # QKGAEA). The mutated integrase coding region within the shuttle vector was sequence verified, and then exchanged for the wild-type (WT) coding sequence in the reporter virus DNA backbone.
(§6) 293T cells were plated out at 12000 cells per well in CellView 96-well cell culture plates (Invitrogen) 16 h prior to compound addition. Compounds were preincubated with cells for 4 h at 37° C. prior to the addition of virus sufficient to generate approximately 10000 Luciferase light units (as measured by the Victor Wallace luminometer) upon assaying using the Bright-Glo™ reagent (Promega) according to the manufacturer's instructions at 48 h post infection.

For assay [3], the system named is HIV-1 reporter virus, wild-type (WT) integrase. Description: Luciferase reporter virus infectivity assay, WT. Type of assay: cell-based. The settings on record: Human immunodeficiency virus 1, HEK-293T, 48 h, read-out: Luciferase assay results WT (EC50).
From the text: as §4, §5, §6

[4] abbreviates: read-out: Luciferase assay results QHGS (EC50).
[5] abbreviates: read-out: EC50 against the QHGS mutant.

Take `Cn1ccn2c(=O)c(O)c(-c3ncc(Cc4ccc(F)cc4)s3)nc12`: the IC50 on HIV integrase WT was 1 to 100 nM; at HIV integrase E92Q/N155H, 100 to 1000 nM; in assay [1] it was 1 to 100 nM.
Regarding `Cn1ccn2c(=O)c(O)c(-c3ncc(Cc4ccc(Cl)cc4)s3)nc12`, the figures for the IC50 (against HIV integrase WT; at HIV integrase E92Q/N155H; in assay [1]) were 1 to 100 nM, 100 to 1000 nM and 100 to 1000 nM, respectively.
As for `Cn1ccn2c(=O)c(O)c(-c3ncc(Cc4ccc(Cl)c(Cl)c4)s3)nc12`, the figures for the IC50 (at HIV integrase WT; against HIV integrase E92Q/N155H; in assay [1]) were 1 to 100 nM, 100 to 1000 nM and 100 to 1000 nM, respectively.
In the case of `Cn1ccn2c(=O)c(O)c(-c3ncc(Cc4ccc(F)c(Cl)c4)s3)nc12`, the half-inhibitory concentration (IC50) against HIV integrase WT was in the range of 1 to 100 nM; on HIV integrase E92Q/N155H, 100 to 1000 nM; in assay [1], 100 to 1000 nM.
Take `C[C@H]1CN(C(=O)Cn2ccn3c(=O)c(O)c(-c4ncc(Cc5ccc(Cl)c(Cl)c5)s4)nc23)C[C@H](C)O1`: the EC50 in assay [2] (setting [4]) was 100 to 1000 nM; in assay [3], 1 to 100 nM.
Turning to `O=C(Cn1ccn2c(=O)c(O)c(-c3ncc(Cc4ccc(F)cc4)s3)nc12)N1CCCCC1`, the results for the EC50 in assay [2] (setting [4]) and in assay [3] were more than 1000 nM and 1 to 100 nM, respectively.
Consider `CN1CCC(n2ccn3c(=O)c(O)c(-c4ncc(Cc5ccc(F)cc5)s4)nc23)C1=O` (stereo not shown) [Example 183, 7-[5-(4-Fluoro-benzyl)-thiazol-2-yl]-6-hydroxy-1-(1-methyl-2-oxo-pyrrolidin-3-yl)-1H-imidazo[1,2-a]pyrimidin-5-one], for which the EC50 in assay [2] (setting [5]) is 500 to 1000 nM.
As for `CC1CN(C(=O)C(C)n2ccn3c(=O)c(O)c(-c4ncc(Cc5ccc(F)cc5)s4)nc23)CC(C)O1` (stereo not shown) [Example 184, 1-[2-(2,6-Dimethyl-morpholin-4-yl)-1-methyl-2-oxo-ethyl]-7-[5-(4-fluoro-benzyl)-thiazol-2-yl]-6-hydroxy-1H-imidazo[1,2-a]pyrimidin-5-one], in assay [2] (setting [5]), the EC50 was in the range of 1000 to 10000 nM.
Still for that read-out and setting: in the case of `O=C(Cn1ccn2c(=O)c(O)c(-c3ncc(Cc4ccc(F)cc4)s3)nc12)N1CC2CCC1C2` (stereo not shown) [Example 185, 1-[2-(2-Aza-bicyclo[2.2.1]hept-2-yl)-2-oxo-ethyl]-7-[5-(4-fluoro-benzyl)-thiazol-2-yl]-6-hydroxy-1H-imidazo[1,2-a]pyrimidin-5-one] it was 1000 to 10000 nM; in that of `C[C@@H]1CN(C(=O)Cn2cc(N3CCCS3(=O)=O)n3c(=O)c(O)c(C(=O)NCc4ccc(F)cc4S(=O)(=O)N(C)C)nc23)C[C@@H](C)O1` [Example 186, 1-[2-((2R,6R)-2,6-Dimethyl-morpholin-4-yl)-2-oxo-ethyl]-3-(1,1-dioxo-1lambda*6*-isothiazolidin-2-yl)-6-hydroxy-5-oxo-1,5-dihydro-imidazo[1,2-a]pyrimidine-7-carboxylic acid 2-dimethylsulfamoyl-4-fluoro-benzylamide], less than 500 nM.
Consider `CC1CC(C)CN(C(=O)Cn2cc(N3CCCS3(=O)=O)n3c(=O)c(O)c(C(=O)NCc4ccc(F)cc4S(=O)(=O)N(C)C)nc23)C1` (stereo not shown) [Example 187, 1-[2-(3,5-Dimethyl-piperidin-1-yl)-2-oxo-ethyl]-3-(1,1-dioxo-1lambda*6*-isothiazolidin-2-yl)-6-hydroxy-5-oxo-1,5-dihydro-imidazo[1,2-a]pyrimidine-7-carboxylic acid 2-dimethylsulfamoyl-4-fluoro-benzylamide], for which the concentration for a half-maximal effect (EC50) in assay [2] (setting [5]) is less than 500 nM.
As to `CN(C)S(=O)(=O)c1cc(F)ccc1CNC(=O)c1nc2n(CC(=O)N3CCCCC3)cc(N3CCCS3(=O)=O)n2c(=O)c1O` [Example 188, 3-(1,1-Dioxo-1lambda*6*-isothiazolidin-2-yl)-6-hydroxy-5-oxo-1-(2-oxo-2-piperidin-1-yl-ethyl)-1,5-dihydro-imidazo[1,2-a]pyrimidine-7-carboxylic acid 2-dimethylsulfamoyl-4-fluoro-benzylamide], the EC50 in assay [2] (setting [5]) is less than 500 nM.
Take `CC1CCCCN1C(=O)Cn1cc(N2CCCS2(=O)=O)n2c(=O)c(O)c(C(=O)NCc3ccc(F)cc3S(=O)(=O)N(C)C)nc12` (stereo not shown) [Example 189, 3-(1,1-Dioxo-1lambda*6*-isothiazolidin-2-yl)-6-hydroxy-1-[2-(2-methyl-piperidin-1-yl)-2-oxo-ethyl]-5-oxo-1,5-dihydro-imidazo[1,2-a]pyrimidine-7-carboxylic acid 2-dimethylsulfamoyl-4-fluoro-benzylamide]: in assay [2] (setting [5]), the EC50 fell in the range of 500 to 1000 nM.
Same read-out and setting: in the case of `CC1CC(C)CN(C(=O)Cn2cc(N3CCCS3(=O)=O)n3c(=O)c(O)c(C(=O)NCc4ccc(Cl)c(Cl)c4)nc23)C1` (stereo not shown) [Example 190, 1-[2-(3,5-Dimethyl-piperidin-1-yl)-2-oxo-ethyl]-3-(1,1-dioxo-1lambda*6*-isothiazolidin-2-yl)-6-hydroxy-5-oxo-1,5-dihydro-imidazo[1,2-a]pyrimidine-7-carboxylic acid 3,4-dichloro-benzylamide] it was 500 to 1000 nM; in that of `CSCc1cn(CC(=O)N2CC(C)CC(C)C2)c2nc(C(=O)NCc3ccc(Cl)c(Cl)c3)c(O)c(=O)n12` (stereo not shown) [Example 191, 1-[2-(3,5-Dimethyl-piperidin-1-yl)-2-oxo-ethyl]-6-hydroxy-3-methylsulfanylmethyl-5-oxo-1,5-dihydro-imidazo[1,2-a]pyrimidine-7-carboxylic acid 3,4-dichloro-benzylamide], 1000 to 10000 nM.
In the case of `CSCc1cn(CC(=O)N2CC(C)CC(C)C2)c2nc(C(=O)NCc3ccc(F)cc3S(=O)(=O)N(C)C)c(O)c(=O)n12` (stereo not shown) [Example 192, 1-[2-(3,5-Dimethyl-piperidin-1-yl)-2-oxo-ethyl]-6-hydroxy-3-methylsulfanylmethyl-5-oxo-1,5-dihydro-imidazo[1,2-a]pyrimidine-7-carboxylic acid 2-dimethylsulfamoyl-4-fluoro-benzylamide], in assay [2] (setting [5]), the EC50 is less than 500 nM.
The same measure, in the same setting: in the case of `CC1CC(C)CN(C(=O)Cn2cc(CS(C)(=O)=O)n3c(=O)c(O)c(C(=O)NCc4ccc(Cl)c(Cl)c4)nc23)C1` (stereo not shown) [Example 193, 1-[2-(3,5-Dimethyl-piperidin-1-yl)-2-oxo-ethyl]-6-hydroxy-3-methanesulfonylmethyl-5-oxo-1,5-dihydro-imidazo[1,2-a]pyrimidine-7-carboxylic acid 3,4-dichloro-benzylamide] it was less than 500 nM.
Same read-out and setting: in the case of `CC1CC(C)CN(C(=O)Cn2cc(CS(C)(=O)=O)n3c(=O)c(O)c(C(=O)NCc4ccc(F)cc4S(=O)(=O)N(C)C)nc23)C1` (stereo not shown) [Example 194, 1-[2-(3,5-Dimethyl-piperidin-1-yl)-2-oxo-ethyl]-6-hydroxy-3-methanesulfonylmethyl-5-oxo-1,5-dihydro-imidazo[1,2-a]pyrimidine-7-carboxylic acid 2-dimethylsulfamoyl-4-fluoro-benzylamide] it was less than 500 nM.

(Values after patent US8431581B2, “Imidazopyrimidines and uses thereof” (priority 2008, dated 2013).)
